“And” between values parts separate entries of the source, which are not always exact repeats. Equal entries are not always repeated. “Also recorded” adds a separate entry of the source. Where two headings read alike, the source gives them in different places. Blank lines part the entries; values can stand above or below the compound they belong to.
What was measured:
[1] = tested on: VEGF-induced proliferation of HUVEC cells; test: VEGF-induced HUVEC proliferation, MTT assay; format: cell-based, human; settings: for inhibition at 20 µM: Homo sapiens, HUVEC, 48 h, read-out: % Inhibition of Proliferation; for inhibition of VEGF-induced HUVEC proliferation (in words): 20 μM
Description: The assay was performed as follows. Vascular endothelial growth factor (VEGF, Cat #SRP3182) was purchased from Sigma. […] Stock solutions of all compounds were prepared in DMSO and were serially diluted for cell culture treatment maintaining the final DMSO concentration at less than 1%. Cell proliferation of HUVECs was evaluated through the MTT (3-[4, 5-dimethylthiazol-2-yl]-2, 5-dimethyltetrazolium bromide) colorimetric assay, as previously described.^28 The HUVECs were seeded at a density of 10,000 cells/well in 24 well plates in serum-containing medium and cultured overnight. Cells were starved with 300 μL of assay media (0.1% BSA+0.1% FBS in basal medium) for 24 h. Then, cells were treated with 500 μL of assay medium (control group), VEGF (10 ng/mL, positive control group) or VEGF along with compounds (20 μM). After 48 h of culture, 50 μL of MTT stock (5 mg/mL in PBS) was added to each well and incubated for 2 h at 37° C. to allow the formation of dark blue formazan crystals in the metabolically active cells. The medium was removed, the cells were washed with PBS (pH 7.4), and 100 μL of acidified isopropanol (0.33 mL HCl in 100 mL isopropanol) was added to each well and incubated for 5 min with thorough agitation to solubilize the formazan crystals. An equal volume of the solution was transferred to a 96-well plate and the absorbance was immediately measured using a microplate reader at a wavelength of 570 nm.

[2] = target: T1, Mitochondrial respiratory complex II (Rattus norvegicus, UniProt P21913+Q641Z9+Q6PCT8+Q920L2); test: Mitochondrial respiratory complex II inhibition assay; format: biochemical; settings: 100 μM, relative to DMSO control; for inhibition at 100 µM: read-out: inhibition of CII
T1 construct: measured spectrophotometrically using isolated rat heart mitochondria; from tissue; host or cells: rat heart mitochondria / sub-mitochondrial particles
Description: The assay was performed as follows. Mitochondria were isolated either from fresh rat hearts or by differential centrifugation in sucrose-based buffer as previously described.^24 Complex II enzymatic activity was determined spectrophotometrically as the rate of succinate-driven, co-enzyme Q2-linked reduction of dichlorophenolindophenol (DCPIP).^49 Mitochondria or sub-mitochondrial particles were incubated in phosphate buffer (pH 7.4) containing 40 μM DCPIP, 1 mM KCN, 10 μM rotenone, and 50 μM co-enzyme Q2. The rate of reduction of DCPIP to DCPIPH2 was followed at […] (ε=21,000 M-1). Varying amounts of succinate and inhibitors were used to determine an IC50 value. At the end of each run thenoyltrifluoroacetone (1 mM) was added and the residual TTFA-insensitive rate subtracted.

[3] = tested on: 22Rv1 prostate cancer cells; test: MTS cytotoxicity assay in 22Rv1 prostate cancer cells; settings: 100 μM, 48 hrs treatment, MTS
Description: The assay was performed as follows. To determine the cell growth inhibition ability of the synthesized compounds the (3-(4,5-dimethylthiazol-2-yl)-5-(3-carboxymethoxyphenyl)-2-(4-sulfophenyl)-2H-tetrazolium) (MTS) assay used according to the manufacturer's recommended protocol. Stock solutions of the synthesized compounds were prepared in DMSO. Cells were seeded at a density of 1×10^5 cells in 96-well plates. After 24 hours, cells were treated at the indicated concentrations of test compounds, limiting the final DMSO concentration to less than 1%. After incubation at 37° C. in an environment of 5% CO2 for 48-72 hours, 10 μL of MTS reagent (CellTiter 96© AQueous One Solution Reagent) was added to each well and incubated at the above mentioned conditions for 2-4 hr. Absorbance was recorded at 490 nm on a BioTek Synergy Mx multimode plate reader and the viability of cells were plotted as percentage of controls.

[4] = 20 μM compound, VEGF 10 ng/mL, relative to VEGF treated cells, mean ± SEM n = 3

T1 sequence (Q920L2 35-656): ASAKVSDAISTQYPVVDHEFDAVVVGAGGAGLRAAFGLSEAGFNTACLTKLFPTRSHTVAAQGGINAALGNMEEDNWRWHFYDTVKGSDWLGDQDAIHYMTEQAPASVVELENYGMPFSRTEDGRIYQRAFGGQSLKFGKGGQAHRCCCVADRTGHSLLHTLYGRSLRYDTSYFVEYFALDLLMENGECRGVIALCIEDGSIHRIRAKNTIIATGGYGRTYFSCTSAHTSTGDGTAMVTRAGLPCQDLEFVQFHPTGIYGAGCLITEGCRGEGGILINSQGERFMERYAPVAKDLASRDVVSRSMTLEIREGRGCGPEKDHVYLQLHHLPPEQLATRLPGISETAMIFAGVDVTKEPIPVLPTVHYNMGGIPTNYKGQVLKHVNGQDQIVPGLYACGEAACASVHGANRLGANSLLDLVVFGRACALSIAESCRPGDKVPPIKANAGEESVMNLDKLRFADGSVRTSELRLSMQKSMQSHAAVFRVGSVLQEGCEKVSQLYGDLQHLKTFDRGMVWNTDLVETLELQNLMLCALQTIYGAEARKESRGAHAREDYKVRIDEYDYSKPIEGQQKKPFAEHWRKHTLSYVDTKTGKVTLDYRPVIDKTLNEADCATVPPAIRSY
T1 sequence (P21913 31-282): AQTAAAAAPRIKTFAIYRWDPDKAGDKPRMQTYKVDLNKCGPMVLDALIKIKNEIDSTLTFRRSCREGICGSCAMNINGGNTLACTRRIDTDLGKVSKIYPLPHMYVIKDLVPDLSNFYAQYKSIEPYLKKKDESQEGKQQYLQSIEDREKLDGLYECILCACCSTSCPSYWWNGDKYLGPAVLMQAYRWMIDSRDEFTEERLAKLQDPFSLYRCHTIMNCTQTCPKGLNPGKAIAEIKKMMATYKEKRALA
T1 sequence (Q641Z9 1-169): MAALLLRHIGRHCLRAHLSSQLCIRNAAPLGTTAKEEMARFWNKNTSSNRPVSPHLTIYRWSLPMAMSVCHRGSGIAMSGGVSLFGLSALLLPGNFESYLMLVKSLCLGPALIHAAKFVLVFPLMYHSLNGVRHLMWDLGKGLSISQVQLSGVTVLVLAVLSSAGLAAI
T1 sequence (Q6PCT8 57-159): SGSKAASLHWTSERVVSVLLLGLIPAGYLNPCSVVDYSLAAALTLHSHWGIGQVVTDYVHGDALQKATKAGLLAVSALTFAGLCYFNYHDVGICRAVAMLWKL

Structure (SMILES): O=S1(=O)N=C(NCc2ccc(F)cc2)Nc2ccc(Cl)cc21 [Compound 54e, 7-Chloro-3-((4-fluorobenzyl)amino)-4H-benzo[e][1,2,4]thiadiazine 1,1-dioxide]
- inhibition at 20 µM [1, 4]: 70 ± 23%

- inhibition at 100 µM [2]: 19%
Structure (SMILES): O=S1(=O)N=C(NCc2ccc(C(F)(F)F)cc2)Nc2cc(Cl)ccc21 [Compound 25b, 6-chloro-3-((4-(trifluoromethyl)benzyl)amino)-4H-benzo[e][1,2,4]thiadiazine 1,1-dioxide]
- inhibition at 20 µM [1, 4]: 1 ± 43%

Structure (SMILES): O=S1(=O)N=C(NCc2ccc(Cl)cc2)Nc2ccc(F)cc21 [Compound 16a, 3-((4-chlorobenzyl)amino)-7-fluoro-4H-benzo[e][1,2,4]thiadiazine 1,1-dioxide]
- reduction of 22Rv1 cell viability [3]: inactive

Structure (SMILES): Cc1ccc(CNC2=NS(=O)(=O)c3ccc(Cl)cc3N2)cc1 [Compound 27b, 6-chloro-3-((4-methylbenzyl)amino)-4H-benzo[e][1,2,4]thiadiazine 1,1-dioxide]
- inhibition at 20 µM [1, 4]: 146 ± 18%

Structure (SMILES): O=S1(=O)N=C(NCc2ccncc2)Nc2ccc(Cl)cc21 [Compound 66e, 7-Chloro-3-((pyridin-4-ylmethyl)amino)-4H-benzo[e][1,2,4]thiadiazine 1,1-dioxide]
- inhibition of VEGF-induced HUVEC proliferation (in words) ([1]; VEGF 10 ng/mL): suppressed HUVEC proliferation; also recorded: enhanced activity
- inhibition at 20 µM [1, 4]: 67 ± 27%

Structure (SMILES): O=S1(=O)N=C(NCCc2ccccc2)Nc2ccc(Cl)cc21 [Compound 55e, 7-Chloro-3-(phenethylamino)-4H-benzo[e][1,2,4]thiadiazine 1,1-dioxide]
- inhibition at 20 µM [1]: 82 ± 10%

Structure (SMILES): COc1cccc(CCNC2=NS(=O)(=O)c3ccc(Cl)cc3N2)c1 [Compound 40b, 6-chloro-3-((3-methoxyphenethyl)amino)-4H-benzo[e][1,2,4]thiadiazine 1,1-dioxide]
- inhibition at 20 µM [1]: 99 ± 22%

Structure (SMILES): O=S1(=O)N=C(NCc2ccc(F)cc2F)Nc2ccc(Br)cc21 [Compound 29c, 7-bromo-3-((2,4-difluorobenzyl)amino)-4H-benzo[e][1,2,4]thiadiazine 1,1-dioxide]
- inhibition at 20 µM [1, 4]: 127%

Structure (SMILES): O=C1Nc2cc(Cl)ccc2S(=O)(=O)N1 [Compound 11b, 6-chloro-3-oxo-3,4-dihydro-2H-1,2,4-benzothiadiazine1,1-dioxide]
- inhibition at 20 µM [1]: 0%

Structure (SMILES): COc1cccc(CNC2=NS(=O)(=O)c3ccc(Cl)cc3N2)c1 [Compound 28b, 6-chloro-3-((3-methoxybenzyl)amino)-4H-benzo[e][1,2,4]thiadiazine 1,1-dioxide]
- inhibition at 20 µM [1]: 126 ± 26%

Structure (SMILES): CCNC1=NS(=O)(=O)c2ccccc2N1 [Compound 19d, 3-(ethylamino)-4H-benzo[e][1,2,4]thiadiazine 1,1-dioxide]
- inhibition at 20 µM [1, 4]: 81 ± 25%

- inhibition of CII [2]: inactive
Structure (SMILES): O=S1(=O)N=C(NC2CCCC2)Nc2ccc(F)cc21 [Compound 22a, 7-fluoro-3-(cyclopentylamino)-4H-benzo[e][1,2,4]thiadiazine 1,1-dioxide]

- inhibition at 100 µM [2]: 23%
Structure (SMILES): Cc1ccc(CNC2=NS(=O)(=O)c3cc(F)ccc3N2)cc1 [Compound 27a, 7-fluoro-3-((4-methylbenzyl)amino)-4H-benzo[e][1,2,4]thiadiazine 1,1-dioxide]

- inhibition at 100 µM [2]: 0%
Structure (SMILES): O=S1(=O)N=C(NCCCc2ccccc2)Nc2ccccc21 [Compound 23d, 3-((3-phenylpropyl)amino)-4H-benzo[e][1,2,4]thiadiazine 1,1-dioxide]
- inhibition at 20 µM [1, 4]: 39 ± 68%

Structure (SMILES): CSC1=NS(=O)(=O)c2cc(F)ccc2N1C [Compound 42a, 7-fluoro-4-methyl-3-(methylthio)-4H-benzo[e][1,2,4]thiadiazine 1,1-dioxide]
- inhibition of VEGF-induced HUVEC proliferation (in words) ([1]; VEGF 10 ng/mL): no appreciable inhibition
- inhibition at 20 µM [1, 4]: 41 ± 30%

Structure (SMILES): CSC1=NS(=O)(=O)c2ccc(Cl)cc2N1 [Compound 13b, 6-Chloro-3-methylsulfanyl-4H-1,2,4-benzothiadiazine 1,1-Dioxide]
- inhibition at 20 µM [1, 4]: 21 ± 23%

Structure (SMILES): O=S1(=O)N=C(NCCc2ccccc2)Nc2cc(Cl)ccc21 [Compound 18b, 6-chloro-3-(phenethylamino)-4H-benzo[e][1,2,4]thiadiazine 1,1-dioxide]
- inhibition of VEGF-induced HUVEC proliferation (in words) ([1]; VEGF 10 ng/mL): suppressed HUVEC proliferation; also recorded: enhanced activity
- inhibition at 20 µM [1]: 118 ± 12%

Structure (SMILES): COc1ccc(CNC2=NS(=O)(=O)c3ccc(Cl)cc3N2)cc1 [Compound 20b, 6-chloro-3-((4-methoxybenzyl)amino)-4H-benzo[e][1,2,4]thiadiazine 1,1-dioxide]
- inhibition of VEGF-induced HUVEC proliferation (in words) ([1]; VEGF 10 ng/mL): suppressed HUVEC proliferation; also recorded: enhanced activity
- inhibition at 20 µM [1, 4]: 132 ± 24%

Structure (SMILES): Cc1cccc(CNC2=NS(=O)(=O)c3ccc(Cl)cc3N2)c1 [Compound 42b, 6-Chloro-3-((3-methylbenzyl)amino)-4H-benzo[e][1,2,4]thiadiazine 1,1-dioxide]
- inhibition of VEGF-induced HUVEC proliferation (in words) ([1]; VEGF 10 ng/mL): suppressed HUVEC proliferation; also recorded: enhanced activity
- inhibition at 20 µM [1]: 125 ± 10%

Structure (SMILES): C=CCNC1=NS(=O)(=O)c2ccc(Cl)cc2N1 [Compound 32b, 3-(allylamino)-6-chloro-4H-benzo[e][1,2,4]thiadiazine 1,1-dioxide]
- inhibition at 20 µM [1, 4]: 0%

Structure (SMILES): CC(C)NC1=NS(=O)(=O)c2ccc(Cl)cc2N1 [Compound 14b, 6-Chloro-3-isopropylamino-4H-1,2,4-benzothiadiazine 1,1-Dioxide]
- inhibition at 20 µM [1]: 146 ± 18%

Structure (SMILES): COc1ccccc1CNC1=NS(=O)(=O)c2ccc(Cl)cc2N1 [Compound 26b, 6-chloro-3-((2-methoxybenzyl)amino)-4H-benzo[e][1,2,4]thiadiazine 1,1-dioxide]
- inhibition at 20 µM [1, 4]: 79 ± 26%

Structure (SMILES): O=S1(=O)N=C(NCc2ccc(Cl)cc2)Nc2ccc(Br)cc21 [Compound 16c, 7-bromo-3-((4-chlorobenzyl)amino)-4H-benzo[e][1,2,4]thiadiazine 1,1-dioxide dioxide]
- inhibition of CII [2]: 45%

- inhibition of CII [2]: 7% and 0%
Structure (SMILES): O=S1(=O)N=C(NCc2ccc(C(F)(F)F)cc2)Nc2ccc(F)cc21 [Compound 25a, 7-fluoro-3-((4-(trifluoromethyl)benzyl)amino)-4H-benzo[e][1,2,4]thiadiazine 1,1-dioxide]

Structure (SMILES): COc1ccc(CCNC2=NS(=O)(=O)c3cc(F)ccc3N2)cc1 [Compound 9a]
- inhibition of VEGF-induced HUVEC proliferation (in words) ([1]; VEGF 10 ng/mL): no appreciable inhibition
- inhibition at 20 µM [1]: 70 ± 22%

Structure (SMILES): O=S1(=O)N=C(NCc2ccc(F)cc2)Nc2cc(Cl)ccc21 [Compound 17b, 6-chloro-3-((4-fluorobenzyl)amino)-4H-benzo[e][1,2,4]thiadiazine 1,1-dioxide]
- inhibition at 20 µM [1, 4]: 0%

- inhibition at 100 µM [2]: 25%
Structure (SMILES): O=S1(=O)N=C(NCCc2c[nH]c3ccccc23)Nc2cc(Cl)ccc21 [Compound 36b, 3-((2-(1H-indol-3-yl)ethyl)amino)-6-chloro-4H-benzo[e][1,2,4]thiadiazine 1,1-dioxide]
- inhibition at 20 µM [1, 4]: 24 ± 38%

Structure (SMILES): O=S1(=O)N=C(NCc2ccccc2)Nc2ccc(Cl)cc21 [Compound 57e, 3-(Benzylamino)-7-chloro-4H-benzo[e][1,2,4]thiadiazine 1,1-dioxide]
- inhibition of VEGF-induced HUVEC proliferation (in words) ([1]; VEGF 10 ng/mL): suppressed HUVEC proliferation; also recorded: enhanced activity
- inhibition at 20 µM [1, 4]: 122 ± 9%

- inhibition of CII [2]: inactive
Structure (SMILES): O=S1(=O)N=C(NCc2ccc(Cl)cc2)Nc2ccccc21 [Compound 16d, 3-((4-chlorobenzyl)amino)-4H-benzo[e][1,2,4]thiadiazine 1,1-dioxide]

Structure (SMILES): Cc1ccccc1CNC1=NS(=O)(=O)c2ccc(Cl)cc2N1 [Compound 41b, 6-Chloro-3-((2-methylbenzyl)amino)-4H-benzo[e][1,2,4]thiadiazine 1,1-dioxide]
- inhibition of VEGF-induced HUVEC proliferation (in words) ([1]; VEGF 10 ng/mL): suppressed HUVEC proliferation; also recorded: enhanced activity
- inhibition at 20 µM [1, 4]: 111 ± 9%

From US20230219912A1, “HALOGENATED BENZOTHIADIAZINES FOR THE TREATMENT OF CANCER” (BOARD OF REGENTS OF THE UNIVERSITY OF NEBRASKA, priority 2020, published 2023)
